PMC11965660, “Isobavachalcone ameliorates Alzheimer disease pathology by autophagy-mediated clearance of amyloid beta and inhibition of NLRP3 inflammasome in primary astrocytes and 5x-FAD mice” (Frontiers in Pharmacology, 2025)

Columns and labels:
5x-FAD mice [1] = assay: Radial arm maze test; assay type: in vivo; conditions: for Latency to first entry to baited arm: 5x-FAD mice
From the text: (§1) Hemizygous 5x-FAD transgenic mice (B6.Cg-Tg(APPSwFlLon, PSEN1*M146L*L286V) 6799Vas/Mmjax; MMRRC Strain: 034848-JAX) on congenic C57BL/6J genetic background were used for experiments. The 5x-FAD mice were genotyped using APP-specific qPCR probes to detect the transgene as per the protocol of Jackson Laboratory. Six months old 5x-FAD mice were randomly divided into three groups (n = 5), based on their body weights, with three males and two females in each group. We used mixed-cohort of males and females for our study to exclude any gender biased effect of IBC. Also, AD symptoms are more pronounced in females than in males ([Aggarwal and Mielke, 2023]), making it possible that males and females respond differently to the drug and treatment. Considering this, it is important to show effect of IBC on both sexes. At this age, Aβ deposition and neuroinflammation has already progressed in these mice. We have used IBC as a curative drug rather than a preventive drug. Prior to the initiation of the study, all the animals were acclimatized for 1 week under standard laboratory conditions; animals were drug naive with no prior procedures performed. All testing were performed from 1 to 4 p.m. IBC was orally (OD) given to two groups at different doses, 25 mg/kg (1% DMSO, 2% Tween 80, 19% PEG200, and 78% distilled water) and 50 mg/kg (1% DMSO, 5% Tween 80, 19% PEG200% and 75% distilled water) using oral gavage. 5x-FAD control mice were administered with vehicle (1% DMSO, 5% Tween 80, 19% PEG200% and 75% distilled water). For behavioral and Immunohistochemistry assays, experimenters were blinded to animal identity while carrying out the procedures.
To check the effect of IBC on the behavior of 5x-FAD mice, open field test (OFT), rotarod (Make; Ugo Basile, rota-rod for mice 7650) and radial arm maze (Make; Ugo Basile) tests were performed. All behavioral assays and testing were performed by an experimenter blinded to the treatment groups. To check the effect of IBC on motor coordination and balancing rotarod test was performed. After acclimatizing mice with rotarod for 5 days, their latency to fall was calculated on the day of analysis. The given final values are the mean of three independent attempts of each mouse. OFT was performed to assess exploratory and locomotor activity in a white box (45 × 60 cm). Distance traveled, speed, time spent in corner and center zones and mobile episodes were recorded through an automated video tracking system using AnyMaze software. To check the effect of IBC on the spatial memory of mice, the eight-armed radial arm maze test was done. The mice were acclimatized to the maze for 5 days before the experiment. Each mouse was trained to navigate the maze for five consecutive days. The mouse was placed on the end of one arm (entry arm). For spatial memory assessment, a food reward (100 mg of butter cookies) was placed in the selected arm, which was considered as […]. The movement of mice was tracked with the help of automated AnyMaze software connected with a tracking camera and various memory retention parameters were assessed.

5x-FAD mice [2] = assay: Open field test; assay type: in vivo; conditions: 25 and 50 mg/kg oral, vs 5x-FAD control
From the text: (§2) Hemizygous 5x-FAD transgenic mice (B6.Cg-Tg(APPSwFlLon, PSEN1*M146L*L286V) 6799Vas/Mmjax; MMRRC Strain: 034848-JAX) on congenic C57BL/6J genetic background were used for experiments. The 5x-FAD mice were genotyped using APP-specific qPCR probes to detect the transgene as per the protocol of Jackson Laboratory. Six months old 5x-FAD mice were randomly divided into three groups (n = 5), based on their body weights, with three males and two females in each group. We used mixed-cohort of males and females for our study to exclude any gender biased effect of IBC. Also, AD symptoms are more pronounced in females than in males ([Aggarwal and Mielke, 2023]), making it possible that males and females respond differently to the drug and treatment. […]
To check the effect of IBC on the behavior of 5x-FAD mice, open field test (OFT), rotarod (Make; Ugo Basile, rota-rod for mice 7650) and radial arm maze (Make; Ugo Basile) tests were performed. […] After acclimatizing mice with rotarod for 5 days, their latency to fall was calculated on the day of analysis. […] Distance traveled, speed, time spent in corner and center zones and mobile episodes were recorded through an automated video tracking system using AnyMaze software. […] The movement of mice was tracked with the help of automated AnyMaze software connected with a tracking camera and various memory retention parameters were assessed.

Aβ42 = assay: Aβ estimation in plasma by ELISA; assay type: in vivo, 5x-FAD mice; conditions: 25 and 50 mg/kg, vs untreated 5x-FAD control
From the text: as §1, with “IBC was orally (OD) given to two groups at different doses, 25 mg/kg (1% DMSO, 2% Tween 80, 19% PEG200, and 78% distilled water) and 50 mg/kg (1% DMSO, 5% Tween 80, 19% PEG200% and 75% distilled water) using oral gavage. 5x-FAD control mice were administered with vehicle (1% DMSO, 5% Tween 80, 19% PEG200% and 75% distilled water). For behavioral and Immunohistochemistry assays, experimenters were blinded to animal identity while carrying out the procedures.” left out
After the end of the experiment, blood was collected from the retinal orbital plexus of mice in EDTA-coated vials. […] The levels of Aβ in the plasma were measured by using the protein-specific ELISA kit.

GFAP = assay: Immunohistochemistry of GFAP in hippocampus; assay type: in vivo, 5x-FAD mice; conditions: 25 and 50 mg/kg, vs 5x-FAD control
From the text: as §1, with “IBC was orally (OD) given to two groups at different doses, 25 mg/kg (1% DMSO, 2% Tween 80, 19% PEG200, and 78% distilled water) and 50 mg/kg (1% DMSO, 5% Tween 80, 19% PEG200% and 75% distilled water) using oral gavage. 5x-FAD control mice were administered with vehicle (1% DMSO, 5% Tween 80, 19% PEG200% and 75% distilled water). For behavioral and Immunohistochemistry assays, experimenters were blinded to animal identity while carrying out the procedures.” left out
Mice’s hippocampus tissue was fixed in 10% formalin. […] Images were taken in a CQ1 high throughput imaging system and analyzed using cell pathfinder software.

IL-1β = IL-1β in mice cortex by ELISA; assay type: in vivo, 5x-FAD mice; conditions: 25 and 50 mg/kg, vs 5x-FAD control
From the text: After the termination of experiments, the supernatant was collected and analyzed for levels of cytokines. For measuring IL-1β and IL-18, supernatant collected after NLRP3 inflammasome activation as mentioned above, was subjected to ELISA. For detection of IL-1β in mice cortex, mice cortices were isolated and homogenized in RIPA buffer to measure IL-1β in homogenates. The manufacturer’s protocol was followed for measuring the cytokines. The levels of measured cytokines were normalized with the total protein content of the cells. For total protein content of cell pellet lysed with lysis buffer (0.2 N NaCl and 1% Triton-X 100) was measured.
as §2

5x-FAD mice hippocampus = assay: Immunoblotting of autophagy, NLRP3 inflammasome and neuroinflammation proteins in hippocampus; assay type: in vivo; conditions: 25 and 50 mg/kg
Method: Cellular lysates were prepared using radio immuno precipitation assay (RIPA) buffer for protein analysis. Briefly, the cell pellet was dissolved in RIPA buffer containing sodium fluoride, sodium orthovanadate, phenyl methyl sulfonyl fluoride (PMSF) and 1% protease inhibitor cocktail for 1 h with vertexing sample every 15 min. The supernatant was collected after high-speed centrifugation of samples for 20 min at 4°C. For analysis of proteins in mice hippocampi, the hippocampi isolated from mice brains was immediately washed with saline and stored in liquid nitrogen. For lysates preparation, tissue was homogenized in RIPA buffer substituted with sodium fluoride, sodium orthovanadate, phenyl methyl sulfonyl fluoride and 1% protease inhibitor cocktail. Total protein was measured using Bradford assay. Proteins were separated using SDS-PAGE and then transferred from gel to PVDF membrane. The protein of interest was labeled with a specific primary antibody overnight at 4°C. Further, the blot was incubated with corresponding HRP-conjugated secondary antibody for 1 h at room temperature. The band were visualized in the Genaxy Chemi Doc imaging system (Make: Syngene, Maryland, USA; Model: G: BOX, XT-4). Densitometry analysis of all the immunoblots was performed by using ImageJ software. Band density of proteins was normalized with β-actin. The phosphorylated proteins were normalized with their total forms.
as §1

[3] = 25 and 50 mg/kg oral, vs 5x-FAD control

CC(C)=CCc1c(O)ccc(C(=O)/C=C/c2ccc(O)cc2)c1O [IBC, isobavachalcone]
Latency to first entry to baited arm (5x-FAD mice [1]; 25 mg/kg oral): 16.58 s | Latency to first entry to baited arm (5x-FAD mice [1]; 50 mg/kg oral): 14.36 s | Baited arm time (5x-FAD mice [1]; [3]): significantly longer time | Distance traveled to find the baited arm (5x-FAD mice [1]; [3]): significantly less distance | Entries to non-baited arm (5x-FAD mice [1]; [3]): smaller number of entries | exploratory behavior in open field (5x-FAD mice [2]): improved exploratory behavior | Aβ42 in blood plasma (Aβ42): reduced levels | GFAP expression (IHC) (GFAP): significantly reduced | IL-1β level in cortex (IL-1β): highly significant decline | GFAP expression (western blot) (5x-FAD mice hippocampus): decreased expression | ASC level (5x-FAD mice hippocampus; western blot): significant abrogation | ATG7 expression (5x-FAD mice hippocampus; western blot): increased expression | CASP1 level (5x-FAD mice hippocampus; western blot): significant abrogation | IBA1 expression (5x-FAD mice hippocampus; western blot): decreased expression | SQSTM1 expression (5x-FAD mice hippocampus; western blot): significantly decreased | cleavage of IL-1β (5x-FAD mice hippocampus; western blot): reduced cleavage | pAMPK expression (5x-FAD mice hippocampus; western blot): increased expression
